The assay concerns the target B-Raf (V600E)-kinase (Homo sapiens (Human), UniProt P15056, V600E). The assay can be described thus: Kinase test B-RAF (V600E). It is filed as biochemical. The settings on record: B-RAF (V600E) kinase test, 250 μM ATP. In short, it runs like this:
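Read-out is DELFIA europium TRF of phospho-MEK (Ser217/221) on biotinylated MEK1 bound to streptavidin plates, IC50 from dose-response. Reaction ran 60 min at RT with 250 μM ATP, after a 24 h RT preincubation of compound with B-Raf (V600E) kinase, 5% DMSO final.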

These results are taken from patent publication US8653087B2, “Pyrido [5, 4-D] pyrimidines as cell proliferation inhibitors” (Boehringer Ingelheim International GmbH, priority 2008, dated 2014).

Molecules are shown by their SMILES. Some results are limits rather than exact numbers.

B-Raf (V600E)-kinase, sequence (P15056 whole entry V600E): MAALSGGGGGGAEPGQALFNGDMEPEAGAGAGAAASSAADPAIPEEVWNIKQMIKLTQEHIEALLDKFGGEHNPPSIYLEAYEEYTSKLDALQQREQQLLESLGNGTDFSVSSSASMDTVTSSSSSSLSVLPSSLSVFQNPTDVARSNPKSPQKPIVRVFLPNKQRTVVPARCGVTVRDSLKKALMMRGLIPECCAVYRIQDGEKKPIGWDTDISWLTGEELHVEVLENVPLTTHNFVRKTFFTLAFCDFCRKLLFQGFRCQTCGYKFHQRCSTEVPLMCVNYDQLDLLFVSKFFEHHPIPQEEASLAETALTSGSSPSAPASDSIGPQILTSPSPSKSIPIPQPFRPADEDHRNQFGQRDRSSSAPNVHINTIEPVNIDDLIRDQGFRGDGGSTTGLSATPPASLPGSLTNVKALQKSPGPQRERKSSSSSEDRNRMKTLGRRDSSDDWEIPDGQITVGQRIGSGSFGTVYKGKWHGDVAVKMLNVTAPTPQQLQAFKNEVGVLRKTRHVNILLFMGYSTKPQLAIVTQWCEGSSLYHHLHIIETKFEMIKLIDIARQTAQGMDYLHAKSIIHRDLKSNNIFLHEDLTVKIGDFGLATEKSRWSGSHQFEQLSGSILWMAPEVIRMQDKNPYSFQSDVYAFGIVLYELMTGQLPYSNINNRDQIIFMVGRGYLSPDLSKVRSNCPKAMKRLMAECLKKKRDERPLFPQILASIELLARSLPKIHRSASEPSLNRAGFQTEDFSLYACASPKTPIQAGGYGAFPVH

Regarding `COc1ccc(NC(=O)c2ccc(Cl)c(Nc3ncnc4cnc(N5CCCC5)nc34)c2)cc1C(F)(F)F` [III-13], the midpoint of inhibition, the IC50, lay at 9 nM. In the case of `Cc1ccc(C(=O)Nc2cc(C(C)(C)C)on2)cc1Nc1ncnc2cnc(N(C)CC3CCOC3)nc12` (stereo not shown) [III-360] it was 3 nM; in that of `COCCN(C)c1ncc2ncnc(Nc3cc(C(=O)Nc4cc(C(C)(C)C)on4)ccc3C(F)(F)F)c2n1` [III-55], above 150 nM; in that of `Cc1ccc(C(=O)Nc2cc(N3CCN(CC(C)C)CC3)cc(C(F)(F)F)c2)cc1Nc1ncnc2cnc(N3CCOCC3)nc12` [III-460], 4 nM. `Cc1ccc(C(=O)Nc2cc(C(C)(C)C)n[nH]2)cc1Nc1ncnc2cnc(N3CC[C@H](F)C3)nc12` [III-508] had an IC50 of 3 nM. In the case of `Cc1ccc(C(=O)Nc2cc(OCCN(C)C)cc(C(F)(F)F)c2)cc1Nc1ncnc2cnc(NC3CC3)nc12` [III-152] it was below 1 nM; in that of `Cc1ccc(C(=O)NC2CC2)cc1Nc1ncnc2cnc(N3CCOCC3)nc12` [III-194], above 2000 nM; in that of `Cc1ccc(C(=O)Nc2cc(C(F)(F)F)ccn2)cc1Nc1ncnc2cnc(NCC(C)C)nc12` [III-519], below 1 nM. In the case of `Cc1ccc(C(=O)Nc2cc(OCCN(C)C)cc(C(F)(F)F)c2)cc1Nc1ncnc2cnc(N3CCSCC3)nc12` [III-142] it was 3 nM; in that of `Cc1ccc(C(=O)Nc2cc(C(C)(C)C)on2)cc1Nc1ncnc2cnc(N3CC[C@H](F)C3)nc12` [III-412], 5 nM. In the case of `Cc1ccc(C(=O)Nc2ccc(N(C)CCN(C)C)c(C(F)(F)F)c2)cc1Nc1ncnc2cnc(NCc3ccncc3)nc12` [III-136] it was 3 nM; in that of `CN(CCN1CCCC1)c1ncc2ncnc(Nc3cc(C(=O)Nc4cc(C(C)(C)C)on4)ccc3C(F)(F)F)c2n1` [III-59], 835 nM; in that of `Cc1ccc(C(=O)Nc2cc(C(C)(C)C)n[nH]2)cc1Nc1ncnc2c(N)nc(N3CCC(N4CCN(C)CC4)CC3)nc12` [I-52], 55 nM. As to `Cc1ccc(C(=O)Nc2cccc(C(F)(F)F)c2)cc1Nc1ncnc2c(N)nc(N3CCCN(c4ccncc4)CC3)nc12` [I-60], the IC50 is below 1 nM. For the compound `Cc1ccc(C(=O)Nc2cc(C(C)(C)C)on2)cc1Nc1ncnc2cnc(N3CCN(CC4CCCN(C)C4)CC3)nc12` (stereo not shown) [III-483], it took 1 nM to reach half-maximal inhibition (IC50). The compound `COc1ccc(NC(=O)c2ccc(C(F)(F)F)c(Nc3ncnc4cnc(NCCCN5CCOCC5)nc34)c2)cc1C(F)(F)F` [III-49] gave an IC50 of 587 nM. `Cc1ccc(NC(=O)c2cc(C(C)(C)C)nn2C)cc1Nc1ncnc2cnc(N3CCN(C)CC3)nc12` [IV-10] showed an IC50 of 221 nM.

Turning to `CN(C)CCNc1ncc2ncnc(Nc3cc(C(=O)Nc4cc(C(C)(C)C)on4)ccc3C(F)(F)F)c2n1` [III-65], the IC50 amounted to 4170 nM. In the case of `COCCN1CCN(c2ncc3ncnc(Nc4cc(C(=O)Nc5ccc(C#N)c(C(F)(F)F)c5)ccc4C)c3n2)CC1` [III-532] it was 2 nM; in that of `CC(=O)N1CCN(c2ncc3ncnc(Nc4cc(NC(=O)c5cccc(C(C)(C)C#N)c5)ccc4C)c3n2)CC1` [IV-36], 4 nM. In the case of `COc1ccc(NC(=O)c2ccc(C)c(Nc3ncnc4cnc(N5CCC(N(C)C)CC5)nc34)c2)cc1C(F)(F)F` [III-435] it was 1 nM. As to `COc1ccc(NC(=O)c2ccc(C(F)(F)F)c(Nc3ncnc4cnc(N5CCCCC5)nc34)c2)cc1C(F)(F)F` [III-48], the IC50 was above 1000 nM. On to `COc1ccc(NC(=O)c2ccc(C)c(Nc3ncnc4cnc(N5CCCN(C)CC5)nc34)c2)cc1C(F)(F)F` [III-443], for which the IC50 came out at 1 nM. Regarding `COc1ccc(NC(=O)c2ccc(C)c(Nc3ncnc4cnc(N5CC[C@H](F)C5)nc34)c2)cc1C(F)(F)F` [III-411], the IC50 is 3 nM. For the compound `COc1ccc(C(C)(C)C)cc1NC(=O)c1ccc(C)c(Nc2ncnc3cnc(N(C)CCN(C)C)nc23)c1` [III-240], half-maximal inhibition (IC50) required 4 nM.

In turn, `CC(C)(C#N)c1cccc(NC(=O)c2ccc(F)c(Nc3ncnc4cnc(N5CCOCC5)nc34)c2)c1` [III-383] registered an IC50 of 4 nM.

Compound `COc1ccc(NC(=O)c2ccc(C(F)(F)F)c(Nc3ncnc4cnc(N5CCCC5)nc34)c2)cc1C(F)(F)F` [III-51] had an IC50 of 381 nM. The result for `Cc1ccc(C(=O)Nc2cc(N3CCCN(C)CC3)cc(C(F)(F)F)c2)cc1Nc1ncnc2cnc(N3CCOCC3)nc12` [III-463] reads 2 nM; that for `Cc1ccc(C(=O)Nc2cc(C(C)(C)C)n[nH]2)cc1Nc1ncnc2c(N)nc(N3CCN(CC4CCCO4)CC3)nc12` (stereo not shown) [I-38], 6 nM; that for `Cc1cc(C(=O)Nc2cc(C(C)(C)C)nn2C)cc(Nc2ncnc3cnc(N4CCN(C)CC4)nc23)c1C` [III-373], 8 nM. In the case of `Cc1ccc(C(=O)NCC2CCOC2)cc1Nc1ncnc2cnc(N3CC[C@@H](F)C3)nc12` (stereo partly shown) [III-205] it was above 2000 nM. The result for `CN1CCC(N2CCN(c3nc(N)c4ncnc(Nc5cc(C(=O)Nc6cccc(C(F)(F)F)c6)ccc5Br)c4n3)CC2)CC1` [I-28] reads 13 nM; that for `COCCN(C)c1ncc2ncnc(Nc3cc(C(=O)Nc4cc(CN5CCCC5)cc(C(F)(F)F)c4)ccc3C)c2n1` [III-98], 2 nM. `Cc1ccc(C(=O)Nc2cc(OCCN(C)C)cc(C(F)(F)F)c2)cc1Nc1ncnc2cnc(NCC(C)C)nc12` [III-153] gave an IC50 below 1 nM.

`Cc1ccc(C(=O)Nc2cc(C(C)(C)C)on2)cc1Nc1ncnc2cnc(N3C[C@@H](C)O[C@@H](C)C3)nc12` [III-368] displayed an IC50 of 14 nM. The result for `COc1ccc(NC(=O)c2ccc(C)c(Nc3ncnc4cnc(N5CCN(CC(C)C)CC5)nc34)c2)cc1C(F)(F)F` [III-444] reads 4 nM; that for `Cc1ccc(C(=O)Nc2cccc(S(=O)(=O)N(C)C)c2)cc1Nc1ncnc2cnc(N3CCN(C)CC3)nc12` [III-303], 7 nM; that for `Cc1ccc(C(=O)Nc2ccc(F)c(C(F)(F)F)c2)cc1Nc1ncnc2cnc(N(C)CCN(C)C)nc12` [III-231], 29 nM. In the case of `CC(C)CN1CCN(c2nc(N)c3ncnc(Nc4ccc(F)c(C(=O)Nc5cc(C(C)(C)C)n[nH]5)c4)c3n2)CC1` [I-83] it was 2200 nM; in that of `Cc1ccc(C(=O)Nc2cccc(C(F)(F)F)c2)cc1Nc1ncnc2cnc(N3CCOCC3)nc12` [III-315], below 1 nM.

As to `COc1ccc(NC(=O)c2ccc(Cl)c(Nc3ncnc4cnc(N5CCN(C)CC5)nc34)c2)cc1C(F)(F)F` [III-9], the IC50 was 7 nM. `Cc1ccc(C(=O)Nc2ccc(C#N)c(C(F)(F)F)c2)cc1Nc1ncnc2cnc(N3CC[C@H](F)C3)nc12` [III-292] showed an IC50 of 36 nM. `Cc1ccc(C(=O)Nc2ccc(Cl)c(C(F)(F)F)c2)cc1Nc1ncnc2cnc(N3CCCC3)nc12` [III-269] showed an IC50 of 33 nM. Consider `COc1ccc(NC(=O)c2ccc(C)c(Nc3ncnc4cnc(N5CCCOCC5)nc34)c2)cc1C(F)(F)F` [III-551], for which the IC50 was 1 nM. In turn, `Cc1ccc(C(=O)Nc2cc(C(C)(C)C)on2)cc1Nc1ncnc2cnc(N(C)CC3CCCCO3)nc12` (stereo not shown) [III-480] yielded an IC50 of 4 nM.

`Cc1ccc(C(=O)Nc2cc(C(C)(C)C)on2)cc1Nc1ncnc2cnc(N3CC(F)(F)C3)nc12` [III-366] came in with a 50% inhibitory concentration (IC50) of 6 nM.

As for `COc1ccc(NC(=O)c2ccc(F)c(Nc3ncnc4cnc(NC5CCOC5)nc34)c2)cc1C(F)(F)F` (stereo not shown) [III-390], the concentration for half-maximal inhibition (IC50) was below 1 nM. In the case of `COCCN1CCN(c2ncc3ncnc(Nc4cc(C(=O)Nc5cc(C(C)(C)C)nn5C)ccc4C)c3n2)CC1` [III-421] it was 12 nM; in that of `CCN1CCN(c2cc(NC(=O)c3ccc(C)c(Nc4ncnc5c(N)nc(N6CCCOCC6)nc45)c3)cc(C(F)(F)F)c2)CC1` [I-81], 3 nM.

As for `Cc1ccc(NC(=O)c2cccc(C(F)(F)F)c2)cc1Nc1ncnc2c(N)nc(N3CC(C)NC(C)C3)nc12` (stereo not shown) [II-15], the IC50 was 40 nM. In the case of `Cc1ccc(NC(=O)c2cccc(C(C)(C)C#N)c2)cc1Nc1ncnc2cnc(N3CCN(C)CC3)nc12` [IV-7], the IC50 was 1 nM. The result for `Cc1ccc(C(=O)Nc2cccc(C(C)(C)C)c2)cc1Nc1ncnc2cnc(N3CCN(C)CC3)nc12` [III-229] reads 1 nM; that for `CC(C)(C#N)c1cccc(C(=O)Nc2cccc(Nc3ncnc4c(N)ncnc34)c2)c1` [VIII-2], 30 nM. For the compound `Cc1cn(-c2cc(NC(=O)c3ccc(C)c(Nc4ncnc5c(N)nc(N6CCN(C)CC6)nc45)c3)cc(C(F)(F)F)c2)cn1` [I-75], half-maximal inhibition (IC50) was put at 54 nM. In the case of `CCN1CCN(c2ncc3ncnc(Nc4cc(NC(=O)c5cccc(C(C)(C)C#N)c5)ccc4C)c3n2)CC1` [IV-27] it was 1 nM; in that of `Cc1ccc(NC(=O)c2cccc(C(F)(F)F)c2)cc1Nc1ncnc2c(N)nc(N3C[C@H](C)NC[C@H]3C)nc12` [II-13], 7 nM.

`Cc1ccc(C(=O)Nc2cc(C(C)(C)C)on2)cc1Nc1ncnc2cnc(N3CCC(N4CCOCC4)CC3)nc12` [III-489] registered an IC50 of 1 nM. In the case of `Cc1ccc(C(=O)NCc2cccc(C(F)(F)F)c2)cc1Nc1ncnc2cnc(N3CCCN(C)CC3)nc12` [III-182] it was 245 nM; in that of `Cc1ccc(C(=O)Nc2cc(N(C)CCN(C)C)cc(C(F)(F)F)c2)cc1Nc1ncnc2cnc(N3CC[C@H](F)C3)nc12` [III-438], 6 nM. As to `COc1ccc(NC(=O)c2ccc(C(F)(F)F)c(Nc3ncnc4cnc(N(C)C)nc34)c2)cc1C(F)(F)F` [III-54], the IC50 amounted to 543 nM.

`Cc1ccc(C(=O)Nc2ccccc2)cc1Nc1ncnc2cnc(N3CCN(C)CC3)nc12` [III-190]: the midpoint of inhibition, the IC50, lay at 1540 nM.

`Cc1ccc(C(=O)NCc2ccc(C(C)(C)C)cc2)cc1Nc1ncnc2cnc(N(C)CCN(C)C)nc12` [III-233] had an IC50 of 571 nM. Regarding `COc1ccc(NC(=O)c2ccc(C(F)(F)F)c(Nc3ncnc4cnc(NCCN(C)C)nc34)c2)cc1C(F)(F)F` [III-52], the half-maximal inhibitory concentration (IC50) is 2230 nM. In turn, `COc1ccc(C(F)(F)F)cc1NC(=O)c1ccc(C)c(Nc2ncnc3cnc(N4CC[C@H](F)C4)nc23)c1` [III-288] had an IC50 of 2 nM.

Broadly, the IC50 is the concentration that inhibits the measured activity by half. Read a high IC50 as lower potency.
